How the values were obtained:
Conditions in all cases: growth mode: biofilm, 24 h; exposure time: 24 h
colistin [1] = compound: T1, CCC(C)CCCC(=O)N[C@@H](CCN)C(=O)N[C@H](C(=O)N[C@@H](CCN)C(=O)N[C@H]1CCNC(=O)[C@H]([C@@H](C)O)NC(=O)[C@H](CCN)NC(=O)[C@H](CCN)NC(=O)[C@H](CC(C)C)NC(=O)[C@@H](CC(C)C)NC(=O)[C@H](CCN)NC1=O)[C@@H](C)O [colistin]; assay: minimum concentration of killing, 1-log CFU reduction of biofilm (MCK90); higher = more biofilm tolerance
Protocol: (§1)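 Clinical P. aeruginosa isolates were grown as static biofilms for 24 h at 37 °C in LB in half-area 96-well plates, then exposed for 24 h to colistin at 1, 4, 16, 64, 256 or […]. Surviving CFU were counted by spotting serial dilutions. MCK is the lowest tested concentration giving the stated log reduction in CFU versus an untreated control; '>1024' means the reduction was not reached at the top dose, and 1 is the lowest dose tested (≤1).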

tobramycin [2] = compound: T2, NC[C@H]1O[C@H](O[C@H]2[C@H](O)[C@@H](O[C@H]3O[C@H](CO)[C@@H](O)[C@H](N)[C@H]3O)[C@H](N)C[C@@H]2N)[C@H](N)C[C@@H]1O [tobramycin]; assay: minimum concentration eradicating biofilm below detection limit (MCK-E); higher = more biofilm tolerance
Protocol: as §1, with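 “tobramycin” for “colistin”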

colistin [3] = compound: T1, colistin; assay: minimum concentration of killing, 2-log CFU reduction of biofilm (MCK99); higher = more biofilm tolerance
Protocol: as §1

tobramycin [4] = compound: T2, tobramycin; assay: as above
Protocol: as §1, with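 “tobramycin” for “colistin”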

tobramycin [5] = compound: T2, tobramycin; assay: minimum concentration of killing, 4-log CFU reduction of biofilm (MCK99.99); higher = more biofilm tolerance
Protocol: as §1, with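 “tobramycin” for “colistin”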

tobramycin [6] = compound: T2, tobramycin; assay: minimum concentration of killing, 1-log CFU reduction of biofilm (MCK90); higher = more biofilm tolerance
Protocol: as §1, with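 “tobramycin” for “colistin”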

colistin [7] = compound: T1, colistin; assay: minimum concentration eradicating biofilm below detection limit (MCK-E); higher = more biofilm tolerance
Protocol: as §1

colistin [8] = compound: T1, colistin; assay: minimum concentration of killing, 4-log CFU reduction of biofilm (MCK99.99); higher = more biofilm tolerance
Protocol: as §1

Row | Test System | minimum concentration of killing (colistin [1]) | minimum concentration eradicating biofilm below detection limit (tobramycin [2]) | minimum concentration of killing (colistin [3]) | minimum concentration of killing (tobramycin [4]) | minimum concentration of killing (tobramycin [5]) | minimum concentration of killing (tobramycin [6]) | minimum concentration eradicating biofilm below detection limit (colistin [7]) | minimum concentration of killing (colistin [8])
1 | Pseudomonas aeruginosa clinical isolate ESP020 | 64 µg/mL | 256 µg/mL | 256 µg/mL | 256 µg/mL | 256 µg/mL | 4 µg/mL | 256 µg/mL | 256 µg/mL
2 | Pseudomonas aeruginosa clinical isolate ESP021 | 16 µg/mL | 64 µg/mL | 64 µg/mL | 4 µg/mL | 64 µg/mL | 4 µg/mL | 256 µg/mL | 256 µg/mL
3 | Pseudomonas aeruginosa clinical isolate ESP022 | 256 µg/mL | 256 µg/mL | 256 µg/mL | 16 µg/mL | 16 µg/mL | 16 µg/mL | 256 µg/mL | 256 µg/mL
4 | Pseudomonas aeruginosa clinical isolate ESP023 | 64 µg/mL | 16 µg/mL | 64 µg/mL | 16 µg/mL | 16 µg/mL | ≤ 1 µg/mL | 64 µg/mL | 64 µg/mL
5 | Pseudomonas aeruginosa clinical isolate ESP024 | 4 µg/mL | 64 µg/mL | 4 µg/mL | 4 µg/mL | 16 µg/mL | ≤ 1 µg/mL | 256 µg/mL | 256 µg/mL
6 | Pseudomonas aeruginosa clinical isolate ESP025 | 16 µg/mL | > 1020 µg/mL | 16 µg/mL | > 1020 µg/mL | > 1020 µg/mL | 1020 µg/mL | 64 µg/mL | 16 µg/mL
7 | Pseudomonas aeruginosa clinical isolate ESP027 | 16 µg/mL | 1020 µg/mL | 64 µg/mL | 4 µg/mL | 1020 µg/mL | ≤ 1 µg/mL | 64 µg/mL | 64 µg/mL
8 | Pseudomonas aeruginosa clinical isolate ESP028 | 256 µg/mL | 1020 µg/mL | 256 µg/mL | 256 µg/mL | 1020 µg/mL | 16 µg/mL | 256 µg/mL | 256 µg/mL
9 | Pseudomonas aeruginosa clinical isolate ESP029 | 256 µg/mL | 256 µg/mL | 256 µg/mL | 4 µg/mL | 256 µg/mL | 4 µg/mL | 256 µg/mL | 256 µg/mL
10 | Pseudomonas aeruginosa clinical isolate ESP031 | 256 µg/mL | 1020 µg/mL | 256 µg/mL | 1020 µg/mL | 1020 µg/mL | 1020 µg/mL | 256 µg/mL | 256 µg/mL
